In patent publication US10787442B2, “Modulators of indoleamine 2,3-dioxygenase” (GLAXOSMITHKLINE INTELLECTUAL PROPERTY DEVELOPMENT LIMITED, priority 2016, dated 2020):

How the values were obtained:
[1] = molecular target: indoleamine 2, 3-dioxygenase (IDO1) (Homo sapiens, UniProt P14902); test: IDO1 HeLa RapidFire MS Assay (kynurenine by mass spectrometry); assay type: cell-based; conditions: HeLa cells stimulated with IFN-γ, 2 days; recorded as pIC50; read-out: IDO1 HeLa PXC50 (converted)
Experimental: IDO1 HeLa RapidFire MS Assay
(§1) Compounds of the present invention were tested via high-throughput cellular assays utilizing detection of kynurenine via mass spectrometry and cytotoxicity as end-points. […] Compounds with IDO1 inhibitory properties decreased the amount of kynurenine produced by the cells via the tryptophan catabolic pathway. Cellular toxicity due to the effect of compound treatment was measured using CellTiter-Glo® reagent (CTG) (Promega Corporation, Madison, Wis.), which is based on luminescent detection of ATP, an indicator of metabolically active cells.
(§2) In preparation for the assays, test compounds were serially diluted 3-fold in DMSO from a typical top concentration of 1 mM or 5 mM and plated at 0.5 μL in 384-well, polystyrene, clear bottom, tissue culture treated plates with lids (Greiner Bio-One, Kremsmünster, Austria) to generate 11-point dose response curves. Low control wells (0% kynurenine or 100% cytotoxicity) contained either 0.5 μL of DMSO in the presence of unstimulated (−IFN-γ) HeLa cells for the mass spectrometry assay or 0.5 μL of DMSO in the absence of cells for the cytotoxicity assay, and high control wells (100% kynurenine or 0% cytotoxicity) contained 0.5 μL of DMSO in the presence of stimulated (+IFN-γ) HeLa cells for both the mass spectrometry and cytotoxicity assays.
(§3) Frozen stocks of HeLa cells were washed and recovered in DMEM high glucose medium with HEPES (Thermo Fisher Scientific, Inc., Waltham, Mass.) supplemented with 10% v/v certified fetal bovine serum (FBS) (Thermo Fisher Scientific, Inc., Waltham, Mass.), and 1× penicillin-streptomycin antibiotic solution (Thermo Fisher Scientific, Inc., Waltham, Mass.). The cells were diluted to 100,000 cells/mL in the supplemented DMEM medium. 50 μL of either the cell suspension, for the mass spectrometry assay, or medium alone, for the cytotoxicity assay, were added to the low control wells, on the previously prepared 384-well compound plates, resulting in 5,000 cells/well or 0 cells/well respectively. IFN-γ was added to the remaining cell suspension at a final concentration of 10 nM, and 50 μL of the stimulated cells were added to all remaining wells on the 384-well compound plates. The plates, with lids, were then placed in a 37° C., 5% CO2 humidified incubator for 2 days.
(§4) Following incubation, the 384-well plates were removed from the incubator and allowed to equilibrate to room temperature for 30 minutes. For the cytotoxicity assay, CellTiter-Glo® was prepared according to the manufacturer's instructions, and 10 μL were added to each plate well. After a twenty minute incubation at room temperature, luminescence was read on an EnVision® Multilabel Reader (PerkinElmer Inc., Waltham, Mass.). For the mass spectrometry assay, 10 μL of supernatant from each well of the compound-treated plates were added to 40 μL of acetonitrile, containing 10 μM of an internal standard for normalization, in 384-well, polypropylene, V-bottom plates (Greiner Bio-One, Kremsmünster, Austria) to extract the organic analytes. Following centrifugation at 2000 rpm for 10 minutes, 10 μL from each well of the acetonitrile extraction plates were added to 90 μL of sterile, distilled H2O in 384-well, polypropylene, V-bottom plates for analysis of kynurenine and the internal standard on the RapidFire 300 (Agilent Technologies, Santa Clara, Calif.) and 4000 QTRAP MS (SCIEX, Framingham, Mass.). MS data were integrated using Agilent Technologies' RapidFire Integrator software, and data were normalized for analysis as a ratio of kynurenine to the internal standard.

[2] = test system: human epithelial HeLa cells; test: HeLa cytotoxicity assay (CellTiter-Glo); assay type: cell-based; conditions: cytotoxicity in stimulated HeLa cells, recorded as pCC50
Experimental: as §1, §2, §3, §4

[3] = Tolerability and hepatic functions in Beagle dogs, 7 day repeat oral administration; assay type: in vivo, Beagle dog
Source text: To understand its toxicokinetics and potential effect on hepatic functions, EXAMPLE 6 was orally dosed to Beagle dogs for 7 consecutive days.

Sequence of indoleamine 2, 3-dioxygenase (IDO1) (P14902 whole entry): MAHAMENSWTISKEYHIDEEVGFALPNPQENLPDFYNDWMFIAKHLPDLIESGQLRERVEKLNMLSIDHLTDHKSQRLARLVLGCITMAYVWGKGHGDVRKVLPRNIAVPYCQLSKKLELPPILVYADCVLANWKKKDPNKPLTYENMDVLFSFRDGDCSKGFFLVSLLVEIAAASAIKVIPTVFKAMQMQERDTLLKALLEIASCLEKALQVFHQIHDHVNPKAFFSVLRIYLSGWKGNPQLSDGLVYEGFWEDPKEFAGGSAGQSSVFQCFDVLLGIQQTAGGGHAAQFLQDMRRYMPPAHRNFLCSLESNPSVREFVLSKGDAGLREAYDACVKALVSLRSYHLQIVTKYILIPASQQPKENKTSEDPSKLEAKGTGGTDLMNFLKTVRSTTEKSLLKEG

With `CC(C)CN(c1ncc([C@H](C)CC(=O)O)cc1Nc1ccc(Cl)cn1)C1CCOCC1` [Example 6, (R)-3-(5-((5-chloropyridin-2-yl)amino)-6-(isobutyl(tetrahydro-2H-pyran-4-yl)amino)pyridin-3-yl)butanoic acid] the IC50 [1] was 7.94 nM, the HELA_IDO1_TOX_PXC50 [2] was less than 5 and the clinical observations ([3]; 20 mg/kg PO BID for 7 days) was “no clinical observations”. For the same compound, the “tolerability throughout the study” value ([3]; 20 mg/kg PO BID for 7 days) was “well tolerated”, the “Hepatic functions measured by serum ALT, AST, ALP and T-Bil levels” value ([3]; 20 mg/kg PO BID for 7 days, FIG. 2) was “in the normal variable ranges” and the Body weights ([3]; male and female dogs over the study, FIG. 1) was “constant”.
